This note sets out measurements from patent US20250289850A1, “NOVEL ANTIMICROBIAL PEPTIDES AND METHODS OF USE THEREOF” (QATAR UNIVERSITY, priority 2024, published 2025).

One series relates to MRSA (ATCC-33591). Format: cell-based, Methicillin-Resistant Staphylococcus Aureus. The method, then: (§1) MRSA and E. coli strains were acquired from the microbiology bacterial culture stock at the Biomedical Research Centre (BRC), Qatar University. MRSA (ATCC-33591) and E. coli (ATCC-29522) strains were cultivated overnight on nutrient agar (Remel, ThermoFisher Scientific, Lenexa, KS, USA), followed by a 24 hour period of incubation at 37° C. and adjustment to 0.5 MacFarland Standard, which was measured using DensiCHEK PLUS (bioMérieux, France).
(§2) Minimal Inhibitory Concentration (MIC) of AMP MRSA and E. coli was determined as follows. […] serial dilutions of AMP starting from 2000 μg/ml of 160 μL Mueller Hinton broth (MHB, Lioflchem, Roseto degli Abruzzi, Italy) were transferred to the wells (100 μl each) in a 96-well flat-bottom plate (Microtesttm 96 tissue culture plate, Franklin Lakes, NJ, USA) to get concentrations of 2000, 1000, 500, 250, 125, 62.5, 31.25, 15.6, and 7.8 μg/mL. Then, 10 μL of 0.5 MacFarland for each type (MSRA and/or E. coli) of the measured strain was added to each well. To assure sterilization, the 96-well plate contained wells with MHB control, MHB with AMP treatment control, and controls for the bacterial strain mixed with MHB to guarantee bacterial growth. 96-well plates were then sealed tightly with a parafilm and placed in an aerobic shaker (Innova 44 Incubator Shaker) for 24 hours at 37° C. at a speed of 100 rpm. After this, the MIC of the treatment that effectively eliminated bacterial growth was determined with the naked eye following previously established procedure as described in Eltai N O et al., Antibacterial and Antibiofilm Activity of Mercaptophenol Functionalized-Gold Nanorods Against a Clinical Isolate of Methicillin-Resistant Staphylococcus aureus. […]
(§3) To determine the minimum biocidal concentration ([…]) for the AMP, 20 μL of a ten-fold serial dilution of the MIC with AMP was spread onto fresh nutrient agar media and incubated at 37° C. for around 18 hrs. Bacterial colonies were counted and compared to those grown on control nutrient agar, which had 20 μL of a solution composed only of bacteria and MHB.

The test system of series [1] is Human Fibroblasts (ATCC PCS201010). Format: cell-based. The method, then:
The cytotoxicity and genotoxicity in vitro effect of the AMP was investigated. Human Fibroblasts (ATCC PCS201010, ThermoFischer Scientific, USA) and cells were seeded at a seeding density of 10,000 Cells/well in 96-well plates using Dulbecco's Modified Eagle Medium (DMEM, Gibco, USA). Media was supplemented with 10% Fetal bovine serum (FBS, Gibco, USA), and penicillin streptomycin (Gibco, USA). Cells were incubated overnight (16-18 hrs) at humidified conditions (5% CO2, 37° C.). Adherent cells were then treated with different concentrations of the AMP (7.8125, 15.625, 62.5, 125, 250, 500, 1000, 2000 μg/ml), and cells were then incubated at humidified conditions for 24 hrs. Then conditioned media was collected at different time points 0, 0.5, 1, 3, 6, 24 hours) and used for measuring Lactate Dehydrogenase (LDH, Thermofischer, USA) following manufacturers' instructions. Adherent cells were used to measure cell viability using AlamarBlue (Invitrogen, USA) following manufacturers' instructions at the following time points 0, 0.5, 1, 3, 6, and 24 hours.

A further series concerns human fibroblast cells. The series can be described thus: Genotoxicity, oxiselect comet assay. In kind it is cell-based. The procedure: The genotoxicity effect of the selected AMP was also investigated. In this part, human fibroblast cells were cultured in 24-well plates at a seeding density of 100,000 cells/well; cells were then allowed to adhere and proliferate overnight (16-18 hours). The following day, cells were treated with the AMP (1000 and 2000 μg/ml; negative and positive controls were included in this part, and cells were treated with DMEM and H2O2, respectively. After which, cells were incubated at humidified conditions for 24 hours. Following that, the genotoxicity effect of the AMP was measured using oxiselect comet assay (Abcam, UK) and following the manufacturer's instructions. Images were taken using OLYMPUS BX62, at magnification 40×, attached to an OLYMPUS DP73 digital camera. Image analysis was done using the ImageJ application (OpenComet plugin).

The test system of a further series is MRSA biofilm. Format: cell-based, Methicillin-Resistant Staphylococcus Aureus. The method, then:
The first step in creating the biofilm was the selection of borosilicate glass beads 3-4 mm in diameter (ISOLAB Laborgeräte GmbH, Singapore). Then, the selected beads were soaked and cleaned with a soap solution; after that, they were washed with ddH2O, soaked in 80% ethanol for 24 hrs, and then washed properly using sterile water. Bacteria were then grown on these beads to create the biofilm by taking 20 μL of 0.5 McFarland from the bacterial strains (either MRSA or E. Coli), adding it to 200 μL of nutrient broth in 96-well flat-bottom plates, and placing one bead in cach well. 96-well plates were then sealed tightly with a parafilm and placed in an acrobic shaker (Innova 44 Incubator Shaker) for 72 hours at 37° C. at a speed of 100 rpm. Every 24 hours, 200 μL of fresh media was added to replace the consumed media. The beads were then placed in an Eppendorf tube containing 200 μL of nutrient broth and vortexed for 1 min to loosen any attached bacteria. This step was repeated after 24, 48, and 72 hours to observe the density of the biofilm formed on the beads. Then, 100 μL of the solution was serially diluted over ten-fold serial dilutions, and 20 μL of the serial dilution was spread onto fresh nutrient agar media and incubated at 37° C. for 18 hours. Biofilm colonies were then counted. Generated biofilms were used to investigate the selected AMP's ability to inhibit the MRSA and E. coli biofilms.
The antibiofilm activity of AMP on 72 hours biofilm cultures was tested by treating the biofilm beads with 2000, 1000, 500, 250, 125, and 62.5 μg/mL concentrations of the selected AMP in 96-well plates. Plates were then tightly sealed with a parafilm and placed in an acrobic shaker (Innova 44 Incubator Shaker) for 72 hours at 37° C. at a speed of 100 rpm. The antibiofilm activity of the AMP was determined after observing the wells that contained a transparent solution with the naked eye. Subsequently, the antibiofilm activity of the selected AMP was determined using SEM, as described below. […]

The next series concerns E. coli biofilm. In kind it is cell-based, Escherichia coli. The procedure:
The first step in creating the biofilm was the selection of borosilicate glass beads 3-4 mm in diameter (ISOLAB Laborgeräte GmbH, Singapore). Then, the selected beads were soaked and cleaned with a soap solution; after that, they were washed with ddH2O, soaked in 80% ethanol for 24 hrs, and then washed properly using sterile water. Bacteria were then grown on these beads to create the biofilm by taking 20 μL of 0.5 McFarland from the bacterial strains (either MRSA or E. Coli), adding it to 200 μL of nutrient broth in 96-well flat-bottom plates, and placing one bead in cach well. 96-well plates were then sealed tightly with a parafilm and placed in an acrobic shaker (Innova 44 Incubator Shaker) for 72 hours at 37° C. at a speed of 100 rpm. Every 24 hours, 200 μL of fresh media was added to replace the consumed media. […] Biofilm colonies were then counted. […]
The antibiofilm activity of AMP on 72 hours biofilm cultures was tested by treating the biofilm beads with 2000, 1000, 500, 250, 125, and 62.5 μg/mL concentrations of the selected AMP in 96-well plates. […] The antibiofilm activity of the AMP was determined after observing the wells that contained a transparent solution with the naked eye. Subsequently, the antibiofilm activity of the selected AMP was determined using SEM, as described below. […]

A further series relates to E. coli (ATCC-29522). Format: cell-based, Escherichia coli. The method, then:
as §1, §2, §3

Molecules are shown by their SMILES. In brackets after ≈: the same amount, converted by molar mass. Where two headings read alike, the source gives them in different places. Where a SMILES comes first, the peptide text is derived from it.

In general, MBC refers to the lowest tested concentration that kills the bacteria rather than only halting them. A low value points to more potent killing. For the compound `CC(C)C[C@H](NC(=O)[C@H](CCCNC(=N)N)NC(=O)[C@H](CCCNC(=N)N)NC(=O)[C@H](CCCNC(=N)N)NC(=O)[C@H](Cc1ccccc1)NC(=O)CNC(=O)[C@H](CCCNC(=N)N)NC(=O)[C@H](CS)NC(=O)[C@H](CCCNC(=N)N)NC(=O)CNC(=O)CNC(=O)[C@H](CS)NC(=O)[C@H](Cc1ccccc1)NC(=O)[C@H](C)N)C(=O)N[C@@H](Cc1ccccc1)C(=O)N[C@@H](CS)C(=O)N[C@H](C(=O)N[C@@H](CCCCN)C(=O)N[C@@H](C)C(=O)N[C@@H](CS)C(=O)O)[C@@H](C)O` [AMP] (H-AFCGGRCRGFRRRLFCTKAC-OH; N-terminus and C-terminus assumed), the MBC with MRSA (ATCC-33591) (ATCC-33591, 24 h) came out at 1000 µg/mL (≈ 433 µM); against E. coli (ATCC-29522) (ATCC-29522, 24 h), 1000 µg/mL (≈ 433 µM). Moreover, the antibacterial effect result in the series on MRSA (ATCC-33591) (MRSA, 2000, 1000 μg/ml AMP, 24 hours) is on record as “biocidal effect”; with E. coli (ATCC-29522) (E. coli, 2000, 1000 μg/ml AMP, 24 hours), “biocidal effect”. In addition, the “minimum inhibitory (MIC)” value with MRSA (ATCC-33591) (MRSA, 24 hours, 37° C., read with the naked eye) is 500 µg/mL; in the series on E. coli (ATCC-29522) (E. coli, 24 hours, 37° C., read with the naked eye), 500 µg/mL. Besides, the “cellular cytotoxicity (LDH)” value in series [1] is “no cellular cytotoxicity was detected”. In addition, the “genotoxicity (tail moment)” value in the series with human fibroblast cells was “no significant effect”. Further, the antibiofilm effect result in the series on MRSA biofilm (MRSA biofilm, 2000, 1000 μg/ml AMP) was “eliminate the MRSA biofilm”; in the series on MRSA biofilm (MRSA biofilm, highest dose 2000 μg/ml AMP) it was “totally inhibiting the MRSA biofilm growth”; in the series on E. coli biofilm (E. coli biofilm, only the highest concentration 2000 μg/ml AMP) it was “inhibit the E. coli biofilm”. Besides, the MIC/MBC in biofilm with MRSA biofilm (biofilm, 72 h) is 1000 µg/mL (≈ 433 µM); with E. coli biofilm (biofilm, 72 h), 2000 µg/mL (≈ 866 µM).
With `OO` [H2O2, reference compound], the “comet tail / DNA migration” value in the series on human fibroblast cells (human fibroblasts, AMP 2000, 500 μg/ml (figure legend), positive control H2O2) is given as “extensive DNA migration”.
